Each compound was assayed against T1, human cGAS (residues 161-522) (Homo sapiens, UniProt Q8N884) (assay: cGAS Activity Assay—Malachite Green). Settings: recombinant purified human cGAS 25 nM; 80 μM ATP, 80 μM GTP, 100 nM ISD; 4 hour at RT; phosphate detection by Malachite Green.
T1 construct: human cGAS (residues 161-522); made in house
Format: biochemical
Description: Compounds were tested for cGAS inhibition in a coupled enzymatic assay based on Phosphate detection by Malachite Green. Final assay conditions were 20 mM TRIS pH 7.5 (Applichem), 5 mM MgCl2 (Sigma) and 0.01% BSA (Sigma) supplemented with 80 μM ATP (Sigma), 80 μM GTP (Sigma) and 100 nM Interferon Stimulating DNA (ISD) (Microsynth). Recombinantly expressed purified human cGAS (residues 161-522) was used at 25 nM.
All compounds were prepared as 10 mM stock solutions in DMSO and a 16 pt dilution series in DMSO with a dilution factor of 2.5 was prepared. 1 μL of DMSO dilution series was transferred to 32.3 μL reaction buffer, mixed by pipetting up/down, spun for 1 minute at 3000 rpm and was visually inspected for precipitation. 5 μL of 3-fold enzyme stock solution were transferred to an empty 384-well Black/Clear Flat Bottom Polystyrene NBS (Corning) rows 3-24. Rows 1-2 were filled with assay buffer. Plates were spun 10 seconds at 1000 rpm (164×g). 5 μL of compound intermediate dilution was added and mixed by pipetting up/down to rows 3-24. Rows 1-2 were filled with 3.1% DMSO assay buffer. Plates were spun 10 seconds at 1000 rpm (164×g). 5 μL 3-fold Nucleotide/DNA mix was added to all wells to start the reaction. Plates were spun 10 seconds at 1000 rpm (164×g) and incubated for 4 hour at room temperature (RT) in the dark. 5 μL 4 U/ml PPase (Sigma) were added to all wells. Plates spun 10 seconds at 1000 rpm (164×g). 10 μL BioMol green Solution (Enzo Life Sciences) was added to all wells. Plates spun 10 seconds at 1000 rpm (164×g) and incubated 30 minutes at RT in the dark. Absorbance data was collected 620 nm on an EnVision Multilable Reader (Perkin Elmer) and the following measurement settings were used: excitation filter photometric was 620 nm; excitation from the top; measurement height was 1 mm; number of flashes was 30; number of flashes integrated was 1.
All plates are checked for abnormalities and outliers in the Blank Control (no protein, row 1) and the Neutral Control (no compound, row 2) are excluded using the 3*SD rule. Data was normalized to 0 and 100% by Blank and Neutral Control and each curve was fitted and judged using the 4 parameter logistic equation to determine the IC50 for cGAS inhibition.
Table 13 provides IC50 values (μM) for cGAS inhibition obtained for particular examples of the present invention as measured by the above-described assay.

T1 sequence (Q8N884 161-522): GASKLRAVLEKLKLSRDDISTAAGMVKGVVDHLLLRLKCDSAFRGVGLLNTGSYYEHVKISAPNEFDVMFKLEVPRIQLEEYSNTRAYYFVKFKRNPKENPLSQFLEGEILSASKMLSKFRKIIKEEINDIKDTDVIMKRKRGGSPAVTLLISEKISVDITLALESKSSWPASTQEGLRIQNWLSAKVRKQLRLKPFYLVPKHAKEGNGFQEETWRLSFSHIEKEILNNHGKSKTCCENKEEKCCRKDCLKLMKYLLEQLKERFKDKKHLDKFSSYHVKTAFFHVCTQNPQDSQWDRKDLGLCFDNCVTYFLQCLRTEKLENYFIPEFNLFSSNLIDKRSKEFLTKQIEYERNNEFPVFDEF

| IC50 [nM] | Structure (SMILES) |
| --- | --- |
| 1070 | Cc1oncc1/C(O)=C(\C#N)C(=O)Nc1ccccc1 [Example 3, (Z)-2-cyano-3-hydroxy-3-(5-methylisoxazol-4-yl)-N-phenylacrylamide] |
| 1160 | Cc1oncc1/C(O)=C(\C#N)C(=O)Nc1ccc(C(=O)c2ccccc2)cc1 [Example 38, (Z)-N-(4-benzoylphenyl)-2-cyano-3-hydroxy-3-(5-methylisoxazol-4-yl)prop-2-enamide] |
| 290 | Cc1oncc1/C(O)=C(\C#N)C(=O)Nc1ccc(S(=O)(=O)Nc2ccc(C#N)cc2)cc1 [Example 57, (Z)-2-cyano-N-(4-(N-(4-cyanophenyl)sulfamoyl)phenyl)-3-hydroxy-3-(5-methylisoxazol-4-yl)acrylamide] |
| 160 | Cc1oncc1/C(O)=C(\C#N)C(=O)Nc1ncc(OCC2CCCC2)cn1 [Example 85, (Z)-2-cyano-N-(5-(cyclopentylmethoxy)pyrimidin-2-yl)-3-hydroxy-3-(5-methylisoxazol-4-yl)acrylamide] |
| 750 | CCOc1ccc(NC(=O)/C(C#N)=C(\O)c2cnoc2C)cc1 [Example 28, (Z)-2-cyano-N-(4-ethoxyphenyl)-3-hydroxy-3-(5-methylisoxazol-4-yl)prop-2-enamide] |
| 130 | Cc1oncc1/C(O)=C(\C#N)C(=O)Nc1ccc([S+]([O-])c2ccccc2)cn1 (stereo not shown) [Example 90, (Z)-2-cyano-3-hydroxy-3-(5-methylisoxazol-4-yl)-N-(5-(phenylsulfinyl)pyridin-2-yl)acrylamide] |
| 1120 | Cc1oncc1/C(O)=C(\C#N)C(=O)Nc1ccc(Cl)cc1 [Example 20, (Z)-N-(4-chlorophenyl)-2-cyano-3-hydroxy-3-(5-methylisoxazol-4-yl)acrylamide] |
| 210 | Cc1oncc1/C(O)=C(\C#N)C(=O)Nc1ncc(Sc2ccccc2)cn1 [Example 97, (Z)-2-cyano-3-hydroxy-3-(5-methylisoxazol-4-yl)-N-(5-phenylsulfanylpyrimidin-2-yl)prop-2-enamide] |
| 160 | Cc1oncc1/C(O)=C(\C#N)C(=O)Nc1ncc(CC2CCCCC2)cn1 [Example 88, (Z)-2-cyano-N-(5-(cyclohexylmethyl)pyrimidin-2-yl)-3-hydroxy-3-(5-methylisoxazol-4-yl)acrylamide] |
| 1520 | COC(=O)c1cccc(NC(=O)/C(C#N)=C(\O)c2cnoc2C)c1 [Example 25, methyl 3-[[(Z)-2-cyano-3-hydroxy-3-(5-methylisoxazol-4-yl)prop-2-enoyl]amino]benzoate] |
| 510 | CC(=O)c1ccc(NC(=O)/C(C#N)=C(\O)c2cnoc2C)cc1 [Example 2, (Z)-N-(4-acetylphenyl)-2-cyano-3-hydroxy-3-(5-methylisoxazol-4-yl)prop-2-enamide] |
| 110 | Cc1oncc1/C(O)=C(\C#N)C(=O)Nc1ccc(S(C)(=O)=O)cc1Cl [Example 61, (Z)-N-(2-chloro-4-methylsulfonyl-phenyl)-2-cyano-3-hydroxy-3-(5-methylisoxazol-4-yl)prop-2-enamide] |
| 4370 | Cc1oncc1/C(O)=C(\C#N)C(=O)Nc1ccc(Oc2ccc(Cl)cc2)c(Cl)c1 [Example 24, (Z)-N-(3-chloro-4-(4-chlorophenoxy)phenyl)-2-cyano-2-hydroxy-3-(5-methylisoxazol-4-yl)acrylamide] |
| 710 | Cc1oncc1/C(O)=C(\C#N)C(=O)Nc1ccc(C(=O)N(C)C)cc1 [Example 35, 4-[[(Z)-2-cyano-3-hydroxy-3-(5-methylisoxazol-4-yl)prop-2-enoyl]amino]-N,N-dimethyl-benzamide] |
| 120 | Cc1oncc1/C(O)=C(\C#N)C(=O)Nc1nccc(OCCF)n1 [Example 101, (Z)-2-cyano-N-(4-(2-fluoroethoxy)pyrimidin-2-yl)-3-hydroxy-3-(5-methylisoxazol-4-yl)acrylamide] |
| 2520 | Cc1oncc1/C(O)=C(\C#N)C(=O)Nc1ccc(C(=O)N(C)CC2CCCCC2)c(Cl)c1 [Example 77, (Z)-2-chloro-4-(2-cyano-3-hydroxy-3-(5-methylisoxazol-4-yl)acrylamido)-N-(cyclohexylmethyl)-N-methylbenzamide] |
| 740 | Cc1oncc1/C(O)=C(\C#N)C(=O)Nc1ccc(C(F)(F)F)cc1Cl [Example 56, (Z)-N-(2-chloro-4-(trifluoromethyl)phenyl)-2-cyano-3-hydroxy-3-(5-methylisoxazol-4-yl)acrylamide] |
| 570 | Cc1oncc1/C(O)=C(\C#N)C(=O)Nc1ncc(C(=O)N(C)c2ccccc2)c(-c2ccccc2)n1 [Example 135, (Z)-2-(2-cyano-3-hydroxy-3-(5-methylisoxazol-4-yl)acrylamido)-N-methyl-N,4-diphenylpyrimidine-5-carboxamide] |
| 190 | Cc1oncc1/C(O)=C(\C#N)C(=O)Nc1ncc(C2CCCCC2)cn1 [Example 79, (Z)-2-cyano-N-(5-cyclohexylpyrimidin-2-yl)-3-hydroxy-3-(5-methylisoxazol-4-yl)acrylamide] |
| 210 | Cc1nnc(NS(=O)(=O)c2ccc(NC(=O)/C(C#N)=C(\O)c3cnoc3C)cc2)s1 [Example 43, (Z)-2-cyano-3-hydroxy-3-(5-methylisoxazol-4-yl)-N-[4-[(5-methyl-1,3,4-thiadiazol-2-yl)sulfamoyl]phenyl]prop-2-enamide] |
| 1330 | Cc1oncc1/C(O)=C(\C#N)C(=O)Nc1ncc(C(=O)N(C)Cc2ccccc2)c(CCc2ccccc2)n1 [Example 133, (Z)-N-benzyl-2-(2-cyano-3-hydroxy-3-(5-methylisoxazol-4-yl)acrylamido)-N-methyl-4-phenethylpyrimidine-5-carboxamide] |
| 610 | COc1ccc(-c2cnc(NC(=O)/C(C#N)=C(\O)c3cnoc3C)nc2)cc1 [Example 80, (Z)-2-cyano-3-hydroxy-N-(5-(4-methoxyphenyl)pyrimidin-2-yl)-3-(5-methylisoxazol-4-yl)acrylamide] |
| 170 | COc1cnc(NC(=O)/C(C#N)=C(\O)c2cnoc2C)nc1-c1ccccc1 [Example 124, (Z)-2-cyano-3-hydroxy-N-(5-methoxy-4-phenylpyrimidin-2-yl)-3-(5-methylisoxazol-4-yl)acrylamide] |
| 2340 | Cc1oncc1/C(O)=C(\C#N)C(=O)Nc1ncc(OCC(F)(F)F)c(-c2ccc(Cl)cc2)n1 [Example 127, (Z)-N-(4-(4-chlorophenyl)-5-(2,2,2-trifluoroethoxy)pyrimidin-2-yl)-2-cyano-3-hydroxy-3-(5-methylisoxazol-4-yl)acrylamide] |
| 210 | Cc1oncc1/C(O)=C(\C#N)C(=O)Nc1ccc(S(=O)(=O)c2cccnc2)cc1 [Example 123, (Z)-2-cyano-3-hydroxy-3-(5-methylisoxazol-4-yl)-N-(4-(pyridin-3-ylsulfonyl)phenyl) acrylamide] |
| 70 | COCCNS(=O)(=O)c1ccc(NC(=O)/C(C#N)=C(\O)c2cnoc2C)cc1 [Example 29, (Z)-2-cyano-3-hydroxy-N-(4-(N-(2-methoxyethyl)sulfamoyl)phenyl)-3-(5-methylisoxazol-4-yl)acrylamide] |
| 300 | Cc1oncc1/C(O)=C(\C#N)C(=O)Nc1ncc(Oc2ccccc2)cn1 [Example 82, (Z)-2-cyano-3-hydroxy-3-(5-methylisoxazol-4-yl)-N-(5-phenoxypyrimidin-2-yl)acrylamide] |
| 480 | Cc1oncc1/C(O)=C(\C#N)C(=O)Nc1ncc(C#Cc2ccccc2)cn1 [Example 86, (Z)-2-cyano-3-hydroxy-3-(5-methylisoxazol-4-yl)-N-(5-(phenylethynyl)pyrimidin-2-yl)acrylamide] |
